Test results from ChEMBL document CHEMBL5055669, “Development of Potent and Selective Agonists for Complement C5a Receptor 1 with In Vivo Activity” (J Med Chem, 2021).
Calls of active or inactive are those of the source. No cut-off for these calls is given here. Square brackets hold non-standard residues; d marks the D form. Peptide text beside a SMILES is read from it. Nva = CCC[C@H](N)C(=O)O; Abu = CC[C@H](N)C(=O)O

Columns and labels:
[1] = target: T1, C3a anaphylatoxin chemotactic receptor (Homo sapiens, UniProt Q16581); test: Agonist activity at human C3aR expressed in CHO cells assessed as induction of ERK1/2 phosphorylation at Thr202/Tyr204 residues incubated for 10 mins by AlphaLISA assay; format: functional, cell-based
T1 sequence (Q16581 whole entry): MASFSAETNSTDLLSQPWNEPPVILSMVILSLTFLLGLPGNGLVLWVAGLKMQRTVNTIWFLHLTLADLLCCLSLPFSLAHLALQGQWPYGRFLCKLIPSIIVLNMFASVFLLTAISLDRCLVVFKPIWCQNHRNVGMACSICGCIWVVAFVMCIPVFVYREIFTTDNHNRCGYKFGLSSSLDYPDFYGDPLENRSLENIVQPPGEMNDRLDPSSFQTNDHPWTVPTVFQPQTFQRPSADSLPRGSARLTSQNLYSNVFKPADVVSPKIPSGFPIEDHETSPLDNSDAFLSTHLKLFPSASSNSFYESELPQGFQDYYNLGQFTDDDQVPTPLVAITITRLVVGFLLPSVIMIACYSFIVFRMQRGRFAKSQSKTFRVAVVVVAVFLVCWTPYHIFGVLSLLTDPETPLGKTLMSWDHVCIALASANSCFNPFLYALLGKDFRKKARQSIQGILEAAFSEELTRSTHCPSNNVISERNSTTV

[2] = species: Homo sapiens; test: Selectivity ratio of EC50 for agonist activity at human C3aR expressed in CHO cells to EC50 for agonist activity at human C5aR1 expressed in CHO cells; format: cell-based
[3] = target: T2, C5a anaphylatoxin chemotactic receptor 1 (Homo sapiens, UniProt P21730); test: Agonist activity at human C5aR1 expressed in CHO cells assessed as induction of ERK1/2 phosphorylation at Thr202/Tyr204 residues incubated for 10 mins by AlphaLISA assay; format: functional, cell-based
T2 sequence (P21730 whole entry): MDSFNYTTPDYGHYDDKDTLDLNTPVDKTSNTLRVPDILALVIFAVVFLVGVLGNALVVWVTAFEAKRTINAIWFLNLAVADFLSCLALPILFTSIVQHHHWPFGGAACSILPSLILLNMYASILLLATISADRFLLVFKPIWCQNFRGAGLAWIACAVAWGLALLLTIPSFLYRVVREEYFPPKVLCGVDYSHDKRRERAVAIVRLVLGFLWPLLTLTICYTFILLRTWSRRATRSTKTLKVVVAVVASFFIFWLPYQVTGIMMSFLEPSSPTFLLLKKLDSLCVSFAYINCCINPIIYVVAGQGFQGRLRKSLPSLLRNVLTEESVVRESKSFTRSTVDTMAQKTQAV

[4] = system: MDM; test: Antiinflammatory activity in human MDM cells assessed as suppression of LPS-induced IL-6 production at 1 uM measured after 24 hrs by ELISA; format: functional, cell-based
[5] = Ratio of EC50 for agonist activity at C5aR1 in mouse RAW264.7 cells to EC50 for agonist activity at human C5aR1 expressed in CHO cells; format: cell-based
[6] = target: T3, C5a anaphylatoxin chemotactic receptor 1 (Mus musculus) (UniProt P30993); test: Agonist activity at C5aR1 in mouse RAW264.7 cells assessed as induction of ERK1/2 phosphorylation at Thr202/Tyr204 residues at up to 100 uM incubated for 10 mins in presence of JPE1375 by AlphaLISA assay; format: functional, cell-based
T3 sequence (whole entry): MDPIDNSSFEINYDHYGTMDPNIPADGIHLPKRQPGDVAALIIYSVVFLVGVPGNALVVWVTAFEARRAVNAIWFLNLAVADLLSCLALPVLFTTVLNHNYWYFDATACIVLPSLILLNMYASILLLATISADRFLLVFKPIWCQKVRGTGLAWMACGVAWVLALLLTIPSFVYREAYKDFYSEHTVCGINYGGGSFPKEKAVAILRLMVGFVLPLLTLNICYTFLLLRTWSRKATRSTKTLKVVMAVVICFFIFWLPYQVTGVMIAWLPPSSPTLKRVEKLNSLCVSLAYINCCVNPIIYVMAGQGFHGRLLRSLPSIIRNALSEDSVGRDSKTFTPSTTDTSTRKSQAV

[7] = target: T4, C5a anaphylatoxin chemotactic receptor 1 (Mus musculus, UniProt P30993); test: Agonist activity at C5aR1 in mouse RAW264.7 cells assessed as induction of ERK1/2 phosphorylation at Thr202/Tyr204 residues incubated for 10 mins by AlphaLISA assay; format: functional, cell-based
T4 sequence (P30993 whole entry): T3 sequence (whole entry)

[8] = system: MDM; test: Antiinflammatory activity in human MDM cells assessed as suppression of LPS-induced TNFalpha production at 1 uM measured after 24 hrs by ELISA; format: functional, cell-based
[9] = system: Mus musculus; test: Antiinflammatory activity in C57BL/6J mouse assessed as polymorphonuclear leucocyte mobilization at 50 ug/kg, iv measured after 30 mins by hemacolor-staining based microscopic analysis relative to control; format: functional; conditions: dose 50 µg/kg, 0.5 h
[10] = target: T3, C5a anaphylatoxin chemotactic receptor 1 (Mus musculus); test: Agonist activity at C5aR1 in mouse RAW264.7 cells assessed as induction of ERK1/2 phosphorylation at Thr202/Tyr204 residues at up to 100 uM incubated for 10 mins by AlphaLISA assay; format: functional, cell-based

## CC(=O)N[C@@H](Cc1ccccc1)C(=O)N[C@@H](CCCCN)C(=O)N1CCC[C@H]1C(=O)N[C@@H](CC(C)C)C(=O)N[C@@H](C)C(=O)N[C@@H](Cc1ccccc1)C(=O)N[C@H](C)C(=O)N[C@@H](CCCNC(=N)N)C(=O)O (Ac-FKPLAF[dA]R-OH)
[1]; read-out: pEC50 (converted)
  EC50: 3760 nM
[2]
  Ratio EC50: 51.5
[3]
  EC50: 73.3 nM

## CC(C)C[C@H](NC(=O)[C@@H]1CCCN1C(=O)[C@H](CC(C)C)NC(=O)[C@@H]1CCCN1C(=O)[C@H](CCCCN)NC(=O)[C@@H](N)Cc1ccccc1)C(=O)N[C@H](C)C(=O)N[C@@H](CCCNC(=N)N)C(=O)O (H-FKPLPL[dA]R-OH)
[1]; read-out: pEC50 (converted)
  EC50: 129 nM

## CC(C)C[C@H](NC(=O)[C@H](C)NC(=O)[C@@H](NC(=O)[C@@H]1CCCN1C(=O)[C@H](CCCCN)NC(=O)[C@@H](N)Cc1ccccc1)[C@@H](C)O)C(=O)N[C@H](C)C(=O)N[C@@H](CCCNC(=N)N)C(=O)O
[1]; read-out: pEC50 (converted)
  EC50: 37.1 nM
[2]
  Ratio EC50: 3.7
[3]
  EC50: 10.4 nM

## CC(C)C[C@H](NC(=O)[C@@H]1CCCN1C(=O)[C@H](CC(C)C)NC(=O)[C@@H]1CCCN1C(=O)[C@H](C)NC(=O)[C@@H](N)Cc1ccccc1)C(=O)N[C@H](C)C(=O)N[C@@H](CCCNC(=N)N)C(=O)O
[1]; read-out: pEC50 (converted)
  EC50: 282 nM
[2]
  Ratio EC50: 0.4
[3]
  EC50: 708 nM

## CC(C)C[C@H](NC(=O)[C@H](C)NC(=O)[C@H](CC(C)C)NC(=O)[C@@H]1CCCN1C(=O)[C@H](CCCCN)NC(=O)[C@H](C)N)C(=O)N[C@H](C)C(=O)N[C@@H](CCCNC(=N)N)C(=O)O
[1]; read-out: pEC50 (converted)
  EC50: 532 nM
[2]
  Ratio EC50: 0.4
[3]
  EC50: 1430 nM

## C[C@H](NC(=O)[C@H](C)NC(=O)[C@@H](NC(=O)[C@@H]1CCCN1C(=O)[C@H](CCCCN)NC(=O)[C@@H](N)Cc1ccccc1)[C@@H](C)O)C(=O)N[C@H](C)C(=O)N[C@@H](CCCNC(=N)N)C(=O)O
[1]; read-out: pEC50 (converted)
  EC50: 7010 nM
[2]
  Ratio EC50: 7.8
[3]
  EC50: 895 nM

## CC[C@H](NC(=O)[C@H](C)NC(=O)[C@H](CC(C)C)NC(=O)[C@@H]1CCCN1C(=O)[C@H](CCCCN)NC(=O)[C@H](Cc1ccccc1)NC(C)=O)C(=O)N[C@H](C)C(=O)N[C@@H](CCCNC(=N)N)C(=O)O (Ac-FKPLA[Abu][dA]R-OH)
[4]
  Activity: Active
[1]; read-out: pEC50 (converted)
  EC50: 14500 nM
[5]
  Ratio EC50: 1000
[6]
  Activity: inactive
[2]
  Ratio EC50: 2420
[7]
  EC50: 2300 nM
[8]
  Activity: Active
[9]
  Activity: 41%
[3]
  EC50: 5.78 nM

## CC(C)C[C@H](NC(=O)[C@@H]1CCCN1C(=O)[C@H](C)NC(=O)[C@@H]1CCCN1C(=O)[C@H](CCCCN)NC(=O)[C@@H](N)Cc1ccccc1)C(=O)N[C@H](C)C(=O)N[C@@H](CCCNC(=N)N)C(=O)O
[1]; read-out: pEC50 (converted)
  EC50: 11 nM
[2]
  Ratio EC50: 0.25
[3]
  EC50: 44.4 nM

## CC(C)C[C@H](NC(=O)[C@@H]1CCCN1C(=O)[C@H](CC(C)C)NC(=O)[C@H](C)NC(=O)[C@H](CCCCN)NC(=O)[C@@H](N)Cc1ccccc1)C(=O)N[C@H](C)C(=O)N[C@@H](CCCNC(=N)N)C(=O)O
[1]; read-out: pEC50 (converted)
  EC50: 61.9 nM
[2]
  Ratio EC50: 3.26
[3]
  EC50: 19.5 nM

## CC[C@@H](C)[C@@H](NC(=O)[C@H](C)NC(=O)[C@H](CC(C)C)NC(=O)[C@@H]1CCCN1C(=O)[C@H](CCCCN)NC(=O)[C@H](Cc1ccccc1)NC(C)=O)C(=O)N[C@@H](C)C(=O)N[C@@H](CCCNC(=N)N)C(=O)O
[1]; read-out: pEC50 (converted)
  EC50: 429 nM
[2]
  Ratio EC50: 214
[3]
  EC50: 1.54 nM

## CC(C)C[C@H](NC(=O)[C@@H]1CCCN1C(=O)[C@H](CC(C)C)NC(=O)[C@@H]1CCCN1C(=O)[C@H](CCCCN)NC(=O)[C@H](C)N)C(=O)N[C@H](C)C(=O)N[C@@H](CCCNC(=N)N)C(=O)O
[1]; read-out: pEC50 (converted)
  EC50: 631 nM
[2]
  Ratio EC50: 0.033
[3]
  EC50: 19100 nM

## CC(=O)N[C@@H](Cc1ccccc1)C(=O)N[C@H]1CCCCNC(=O)[C@H](CCCNC(=N)N)NC(=O)[C@@H](C)NC(=O)[C@H](C)NC(=O)[C@H](C)NC(=O)[C@H](CC(C)C)NC(=O)[C@@H]2CCCN2C1=O
[1]; read-out: EC50
  EC50: > 100000 nM

## CC(=O)N[C@@H](Cc1ccccc1)C(=O)N[C@@H](CCCCN)C(=O)N1CCC[C@H]1C(=O)N[C@@H](CC(C)C)C(=O)N[C@@H](C)C(=O)N[C@H](C(=O)N[C@H](C)C(=O)N[C@@H](CCCNC(=N)N)C(=O)O)[C@@H](C)O
[1]; read-out: pEC50 (converted)
  EC50: 69800 nM
[2]
  Ratio EC50: 2050
[3]
  EC50: 34.1 nM

## CC(C)C[C@H](NC(=O)[C@@H]1CCCN1C(=O)[C@H](CCCCN)NC(=O)[C@@H](N)Cc1ccccc1)C(=O)N[C@@H](C)C(=O)N[C@@H](C)C(=O)N[C@@H](C)C(=O)N[C@@H](CCCNC(=N)N)C(=O)O
[1]; read-out: pEC50 (converted)
  EC50: 17300 nM

## CC(C)C[C@H](NC(=O)[C@H](C)NC(=O)[C@H](CC(C)C)NC(=O)[C@@H]1CCCN1C(=O)[C@H](CCCCN)NC(=O)[C@@H](N)Cc1ccccc1)C(=O)N[C@H](C)C(=O)N[C@@H](CCCNC(=N)N)C(=O)O
[1]; read-out: pEC50 (converted)
  EC50: 435 nM
[2]
  Ratio EC50: 109
[3]
  EC50: 4.35 nM

## CC(=O)N[C@@H](Cc1ccccc1)C(=O)N[C@@H](CCCCN)C(=O)N1CCC[C@H]1C(=O)N[C@@H](CC(C)C)C(=O)N[C@@H](C)C(=O)N[C@@H](C)C(=O)N[C@H](C)C(=O)N[C@@H](CCCNC(=N)N)C(=O)O (Ac-FKPLAA[dA]R-OH)
[6]
  Activity: inactive
[7]
  EC50: 22900 nM

## CCC[C@H](NC(=O)[C@H](C)NC(=O)[C@H](CC(C)C)NC(=O)[C@@H]1CCCN1C(=O)[C@H](CCCCN)NC(=O)[C@H](Cc1ccccc1)NC(C)=O)C(=O)N[C@@H](C)C(=O)N[C@@H](CCCNC(=N)N)C(=O)O (Ac-FKPLA[Nva]AR-OH)
[1]; read-out: pEC50 (converted)
  EC50: 752 nM

## CC(C)C[C@H](NC(=O)[C@@H]1CCCN1C(=O)[C@H](CCCCN)NC(=O)[C@@H](N)Cc1ccccc1)C(=O)N1CCC[C@H]1C(=O)N[C@@H](C)C(=O)N[C@H](C)C(=O)N[C@@H](CCCNC(=N)N)C(=O)O
[1]; read-out: pEC50 (converted)
  EC50: 54800 nM

## CC(C)C[C@H](NC(=O)[C@@H]1CCCN1C(=O)[C@H](CCCCN)NC(=O)[C@@H](N)Cc1ccccc1)C(=O)N[C@@H](C)C(=O)N[C@@H](C)C(=O)N[C@H](C)C(=O)N[C@@H](CCCNC(=N)N)C(N)=O
[1]; read-out: EC50
  EC50: > 100000 nM

## CC(C)C[C@H](NC(=O)[C@@H]1CCCN1C(=O)[C@H](CCCCN)NC(=O)[C@@H](N)Cc1ccccc1)C(=O)N[C@@H](C)C(=O)N[C@@H](C)C(=O)N[C@H](C)C(=O)N[C@@H](CCCNC(=N)N)C(=O)O
[1]; read-out: pEC50 (converted)
  EC50: 131000 nM
[10]
  Activity: inactive

## CC(C)C[C@H](NC(=O)[C@H](C)NC(=O)[C@@H](NC(=O)[C@@H]1CCCN1C(=O)[C@H](CCCNC(=N)N)NC(=O)[C@@H](N)Cc1ccccc1)[C@@H](C)O)C(=O)N[C@H](C)C(=O)N[C@@H](CCCNC(=N)N)C(=O)O
[1]; read-out: pEC50 (converted)
  EC50: 9.04 nM
[2]
  Ratio EC50: 0.4
[3]
  EC50: 24.4 nM
